Data published in US20070098649A1, “Method and composition for controlling oral pathogens” (priority 2004, published 2007).
Where a name gives a salt, the structure may show the parent alone. Read-outs that look alike come from different tables or passages of the source. Marks after values point to notes of the source that are not given here.

Legend:
[1] = system: Fusobacterium nucleatum; test: MIC microdilution assay; type: cell-based; conditions: Fusobacterium nucleatum, F. nucleatum
[2] = system: mice; conditions: cited from earlier work; for LD50: mice
[3] = rat, in vivo, iv; cited from earlier work
[4] = system: rabbits; conditions: s.c.; cited from earlier work
[5] = system: Pseudomonas aeruginosa; test: MIC microdilution assay; type: cell-based; conditions: Pseudomonas aeruginosa; P. aeruginosa; agent alone; read-out: MIC of the antimicrobial agents alone
[6] = system: Streptococcus gordonii; test: Combination determination (FIC, MIC in combination); type: cell-based; conditions: S. gordonii; berberine (B-CG) combined with CHX, Tet or Dox; MIC of the named agent in the combination
Method: (§1) The alkaloids were tested in pair-wise combinations (fractional inhibitory concentrations, FIC) against all the bacteria to determine whether interactions were antagonistic (FIC>1), additive (0.5<FIC<1), or synergistic (FIC<0.5). The FIC was calculated by the following: (MIC Acombination/MIC Aalone)+(MIC Bcombination/MIC Balone). Where A represents compound 1 and B represents compound 2. […] In the case of A. actinomycetemcomitans and P. aeruginosa, CHX was used at 0.78 to 50 μg ml^−1. Berberine (B-CG and B-S) was used at concentrations 0.9 to 250 μg ml^−1. The antibacterial efficacy of berberine (1.95 to 500 μg ml^−1) was tested in combination against P. aeruginosa with CHX (0.78 to 50 μg ml^−1) (Sigma Chemicals) and the polymyxin antibiotic Col (0.04 to 25 μg ml^−1) (Sigma Chemicals). The plates were incubated for 24 hours.

[7] = system: Staphylococcus aureus; test: as above; type: cell-based; conditions: S. aureus; berberine (B-CG) combined with CHX, Tet or Dox; MIC of the named agent in the combination
Method: as §1

[8] = system: Porphymonas gingivalis; test: as above; type: cell-based; conditions: P. gingivalis; berberine (B-CG) combined with CHX, Tet or Dox; MIC of the named agent in the combination
Method: as §1

[9] = system: Escherichia coli; test: as above; type: cell-based; conditions: E. coli; berberine (B-CG) combined with CHX, Tet or Dox; MIC of the named agent in the combination
Method: as §1

[10] = system: Actinobacillus actinomycetemcomitans; test: as above; type: cell-based; conditions: A. actinomycetemcomitans grown under anaerobic conditions; berberine (B-CG) combined with CHX, Tet or Dox; MIC of the named agent in the combination
Method: as §1

[11] = system: Pseudomonas aeruginosa; test: as above; type: cell-based; conditions: P. aeruginosa; berberine combined with CHX or Col; MIC of the named agent in the combination
Method: as §1

[12] = system: Fusobacterium nucleatum; test: as above; type: cell-based; conditions: F. nucleatum; berberine (B-CG) combined with CHX, Tet or Dox; MIC of the named agent in the combination
Method: as §1

[13] = system: Actinobacillus actinomycetemcomitans; test: MIC microdilution assay; type: cell-based; conditions: Aggregatibacter actinomycetemcomitans
[14] = in vivo, po; cited from earlier work
[15] = system: Streptococcus mutans; test: Combination determination (FIC, MIC in combination); type: cell-based; conditions: S. mutans
Method: as §1
CHX was diluted from left to right at 10 to 0.08 μg ml^−1 ([…] 1 to 8), berberine was diluted from top to bottom at 250 to 0.09 μg ml^−1 ([…] 1 to 8). Column 9 was the cell control, column 10 was berberine alone (250 to 0.09 μg ml^−1); and column 11 was CHX alone (10 to 0.08 μg ml^−1). Row H was the solvent control (8% DMSO, H1 to H8). Column 12 was the media blank. The dilution assay was designed such that A1 contained the highest concentration of both agents (berberine 250 μg ml^−1 and CHX 10 μg ml^−1). The final concentration of berberine in wells A2 to A8 was […]. The FIC value was calculated from well C6. FIC was calculated by: (MIC Acombination/MIC Aalone)+(MIC Bcombination/MIC Balone).

[16] = system: Streptococcus mutans; test: MIC microdilution assay; type: cell-based; conditions: Streptococcus mutans, S. mutans
[17] = system: Staphylococcus aureus; test: MIC microdilution assay; type: cell-based; conditions: S. aureus, agent alone, read-out: MIC of the antimicrobial agents alone
[18] = system: Porphymonas gingivalis; test: MIC microdilution assay; type: cell-based; conditions: Porphyromonas gingivalis, P. gingivalis
[19] = system: patients with heart conditions; conditions: human, in vivo; cited from earlier work
[20] = system: Escherichia coli; test: MIC microdilution assay; type: cell-based; conditions: E. coli, agent alone, read-out: MIC of the antimicrobial agents alone
[21] = system: Streptococcus gordonii; test: MIC microdilution assay; type: cell-based; conditions: Streptococcus gordonii, S. gordonii
[22] = system: dogs; conditions: dog, in vivo; cited from earlier work
[23] = system: dogs; conditions: intravenous 0.1-6.0 mg/kg; cited from earlier work
[24] = system: S. pyogenes; conditions: at sub-MIC levels; cited from earlier work
[25] = system: rats; conditions: single intraintestinal injection 10 mg/kg into the duodenum; cited from earlier work
[26] = system: mice; conditions: 15 mg/kg i.p.; cited from earlier work
[27] = system: albino rats; conditions: i.p. 50 mg/kg; cited from earlier work
[28] = system: cats; conditions: intravenous 0.1-6.0 mg/kg; cited from earlier work
[29] = system: rats; conditions: intravenous 0.1-6.0 mg/kg; cited from earlier work
[30] = agent alone, read-out: MIC of the antimicrobial agents alone

COc1ccc2cc3[n+](cc2c1OC)CCc1cc2c(cc1-3)OCO2 [Berberine, 5,6-dihydro-9,10-dimethoxybenzo[g]-1,3-benzodioxolo[5,6-a]quinolizinium]
MIC [1, 30]: 15.6 µg/mL | MIC ([1]; Fn, read-out: MIC of Goldenseal Alkaloids Against Selected Oral Pathogens): 15.6 µg/mL | LD50 ([2]; oral): 329 mg/kg | LD50 ([2]; s.c.): 18 mg/kg | LD dose ([2]; mouse, in vivo, ip): greater than 500 mg/kg | Tissue distribution [3]: highest concentrations of berberine were found in the kidneys | LD50 [4]: 100 mg/kg | MIC [5]: > 500 µg/mL | MIC of the antimicrobial agents in combination [6]: 62.5 µg/mL | MIC of the antimicrobial agents in combination [7]: 62.5 µg/mL | MIC of the antimicrobial agents in combination [8]: 7.81 µg/mL | MIC of the antimicrobial agents in combination [9]: 125 µg/mL | MIC of the antimicrobial agents in combination [10]: 250 µg/mL | MIC of the antimicrobial agents in combination [11]: 250** μg ml^−1 | MIC of the antimicrobial agents in combination [12]: 3.9 µg/mL | MIC ([13]; A. actinomycetemcomitans grown under anaerobic conditions, agent alone, read-out: MIC of the antimicrobial agents alone): > 500 µg/mL | MIC ([13]; Aa, A. actinomycetemcomitans, read-out: MIC of Goldenseal Alkaloids Against Selected Oral Pathogens): > 500 µg/mL | Further time to clear [14]: four | Time to reach peak concentrations in plasma [14]: four | MIC of the antimicrobial agents in combination ([15]; berberine (B-CG) combined with CHX, Tet or Dox, MIC of the named agent in the combination): 62.5 µg/mL | MIC alone used for the FIC ([15]; same plate, 48 h): 125 µg/mL | MIC in combination used for the FIC ([15]; well C6, berberine (B-G) with CHX, 48 h): 31.25 µg/mL | MIC [16, 30]: 125 µg/mL | MIC ([16]; Sm, read-out: MIC of Goldenseal Alkaloids Against Selected Oral Pathogens): 125 µg/mL | MIC [17]: 250 µg/mL | MIC [18, 30]: 23.4 µg/mL | MIC ([18]; Pg, read-out: MIC of Goldenseal Alkaloids Against Selected Oral Pathogens): 15.6 µg/mL | Adverse effect in heart failure patients [19]: ventricular tachycardia in some subjects | MIC [20]: 250 µg/mL | MIC [21, 30]: 250 µg/mL | MIC ([21]; Sg, read-out: MIC of Goldenseal Alkaloids Against Selected Oral Pathogens): 250 µg/mL

COc1ccc2cc3[n+](cc2c1OC)CCc1cc2c(cc1-3)OCO2 [berberine sulfate]
Number of apomorphine-induced vomits [22]: significantly increased | Effect on blood pressure [23]: reduced the blood pressure | Adherence of S. pyogenes to epithelial cells [24]: inhibited the adherence | Effect on the volume or acidity [25]: no effect | Protection from amphetamine toxicity [26]: no significant effect | Effect on rectal temperature [27]: reduced rectal temperature | Effect on blood pressure [28]: reduced the blood pressure | Effect on blood pressure [29]: reduced the blood pressure
